Source: patent EP2649989B1, “Method for preparing a solid dispersion, solid dispersion obtained thereby and use thereof” (King Saud University, priority 2012, dated 2013)
Values after ≈ are worked out from the molar mass of the structure shown.

Test: Solubility in water according to the Higuchi-Connor method
Type: physicochemical
Conditions: thermodynamic from solid; excess amount added to 10 ml of water, shaken on mechanical shaker for 48 hours, filtered, dissolved drug content; read-out: Indomethacin Solubility in water
Procedure: The solubility of the drug (indomethacin) and solid dispersions of the drug according to the invention was examined in water according to the Higuchi-Connor method, see "Advances in Analytical Chemical Chemistry and Instrumentation" Vol. 4, New York, Wiley-Interscience 1965, page 117-212. An excess amount of drug, comparative solid dispersions and inventive solid dispersions was added to 10 ml of water, separately. The dispersions were shaken on mechanical shaker for 48 hours. Afterwards, the samples were withdrawn, filtered, diluted and analyzed to calculate the dissolved drug content.

COc1ccc2c(c1)c(CC(=O)O)c(C)n2C(=O)c1ccc(Cl)cc1 [Indomethacin]
solubility at 48 h: 152 µg/mL (≈ 425 µM)
